Several values for one entry are separate records, joined by “and”; a condition that tells them apart may be missing. Equal values may be shown once. Toxic doses and inconclusive results are not listed.
Test system: CD2F1 mice, L1210 leukemia ip, survival T/C
Test: NCI In Vivo Anticancer Drug Screen. Data for tumor model L1210 Leukemia (intraperitoneal) in CD2F1 (CDF1) mice
Conditions: higher = longer survival
Procedure, shortened: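 Compound-dosed mice with transplantable tumor versus matched vehicle controls; endpoint ratio T/C reported.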

[1] = endpoint: mean survival time, dose: 100.0 mg/kg/injection, schedule: Q01DX009 (ip), vehicle: saline with Tween-80
[2] = endpoint: mean survival time, dose: 200.0 mg/kg/injection, schedule: Q01DX009 (ip), vehicle: saline with Tween-80
[3] = endpoint: mean survival time, dose: 400.0 mg/kg/injection, schedule: Q01DX009 (ip), vehicle: saline with Tween-80
[4] = endpoint: mean survival time, dose: 50.0 mg/kg/injection, schedule: Q04DX003 (ip), vehicle: saline with Tween-80
[5] = endpoint: mean survival time, dose: 100.0 mg/kg/injection, schedule: Q04DX003 (ip), vehicle: saline with Tween-80
[6] = endpoint: median survival time, dose: 25.0 mg/kg/injection, schedule: Q01DX009 (ip), vehicle: saline
[7] = endpoint: median survival time, dose: 50.0 mg/kg/injection, schedule: Q01DX009 (ip), vehicle: saline
[8] = endpoint: median survival time, dose: 100.0 mg/kg/injection, schedule: Q01DX009 (ip), vehicle: saline
[9] = endpoint: mean survival time, dose: 200.0 mg/kg/injection, schedule: Q04DX003 (ip), vehicle: saline with Tween-80
[10] = endpoint: mean survival time, dose: 400.0 mg/kg/injection, schedule: Q04DX003 (ip), vehicle: saline with Tween-80
[11] = endpoint: mean survival time, dose: 100.0 mg/kg/injection, schedule: Q01DX009 (ip), vehicle: saline
[12] = endpoint: mean survival time, dose: 200.0 mg/kg/injection, schedule: Q01DX009 (ip), vehicle: saline

SMILES: Nc1nc2ccc(CSc3ccc(C(=O)NC(CCC(=O)O)C(=O)O)cc3)nc2c(=O)[nH]1 (configuration not stated)
- T/C (endpoint: mean survival time, dose: 0.5 mg/kg/injection, schedule: Q01DX005 (ip), vehicle: sodium bicarbonate): 103 % of control and 106 % of control
- T/C (endpoint: mean survival time, dose: 1.0 mg/kg/injection, schedule: Q01DX005 (ip), vehicle: sodium bicarbonate): 97 % of control and 106 % of control
- T/C (endpoint: mean survival time, dose: 2.0 mg/kg/injection, schedule: Q01DX005 (ip), vehicle: sodium bicarbonate): 97 % of control and 108 % of control
- T/C (endpoint: mean survival time, dose: 4.0 mg/kg/injection, schedule: Q01DX005 (ip), vehicle: sodium bicarbonate): 101 % of control and 106 % of control
- T/C (endpoint: mean survival time, dose: 8.0 mg/kg/injection, schedule: Q01DX005 (ip), vehicle: sodium bicarbonate): 97 % of control and 108 % of control
- T/C (endpoint: mean survival time, dose: 16.0 mg/kg/injection, schedule: Q01DX005 (ip), vehicle: sodium bicarbonate): 102 % of control and 103 % of control

SMILES: Nc1nc(CCCCc2ccccc2)c(N=Nc2ccc(Cl)cc2)c(=O)[nH]1
- T/C [1]: 90 % of control
- T/C [2]: 90 % of control
- T/C [3]: 87 % of control

SMILES: O=C(CSC1=NCCN1)c1ccc([N+](=O)[O-])cc1
- T/C (endpoint: mean survival time, dose: 25.0 mg/kg/injection, schedule: Q04DX003 (ip), vehicle: saline with Tween-80): 94 % of control
- T/C [4]: 93 % of control
- T/C [5]: 93 % of control

SMILES: CCCCCCCC(=O)Nc1ccccc1CC
- T/C [1]: 94 % of control
- T/C [2]: 100 % of control
- T/C [3]: 102 % of control

SMILES: Nc1ccn([C@@H](C=O)C[C@@H](C=O)CO)c(=O)n1
- T/C [6]: 107 % of control
- T/C [7]: 121 % of control and 112 % of control
- T/C [8]: 121 % of control and 124 % of control
- T/C (endpoint: median survival time, dose: 400.0 mg/kg/injection, schedule: Q01DX009 (ip), vehicle: saline): 153 % of control and 161 % of control

SMILES: CCCCCCCCC(=O)N1CCN(C(=O)CCCCCCCC)C1
- T/C (endpoint: mean survival time, dose: 75.0 mg/kg/injection, schedule: Q04DX003 (ip), vehicle: saline): 94 % of control
- T/C (endpoint: mean survival time, dose: 150.0 mg/kg/injection, schedule: Q04DX003 (ip), vehicle: saline): 97 % of control
- T/C (endpoint: mean survival time, dose: 300.0 mg/kg/injection, schedule: Q04DX003 (ip), vehicle: saline): 95 % of control

SMILES: C=C[CH2][Sn]([c]1ccccc1)([c]1ccccc1)[c]1ccccc1
- T/C [4]: 87 % of control
- T/C [5]: 91 % of control

SMILES: C=C(Cl)CSCCCS
- T/C (endpoint: mean survival time, dose: 100.0 mg/kg/injection, schedule: Q04DX003 (ip), vehicle: acetone): 111 % of control
- T/C (endpoint: mean survival time, dose: 200.0 mg/kg/injection, schedule: Q04DX003 (ip), vehicle: acetone): 116 % of control
- T/C (endpoint: mean survival time, dose: 400.0 mg/kg/injection, schedule: Q04DX003 (ip), vehicle: acetone): 122 % of control

SMILES: CCCC1(c2ccccc2)C(=O)NCNC1=O
- T/C (endpoint: median survival time, dose: 25.0 mg/kg/injection, schedule: Q01DX005 (ip), vehicle: Klucel (hydroxypropylcellulose) (HPC)): 101 % of control
- T/C (endpoint: median survival time, dose: 50.0 mg/kg/injection, schedule: Q01DX005 (ip), vehicle: Klucel (hydroxypropylcellulose) (HPC)): 97 % of control
- T/C (endpoint: median survival time, dose: 100.0 mg/kg/injection, schedule: Q01DX005 (ip), vehicle: Klucel (hydroxypropylcellulose) (HPC)): 97 % of control
- T/C (endpoint: median survival time, dose: 200.0 mg/kg/injection, schedule: Q01DX005 (ip), vehicle: Klucel (hydroxypropylcellulose) (HPC)): 94 % of control
- T/C (endpoint: median survival time, dose: 400.0 mg/kg/injection, schedule: Q01DX005 (ip), vehicle: Klucel (hydroxypropylcellulose) (HPC)): 104 % of control

SMILES: CC1CCS(=O)(=O)CC1.[Cl][Hg][Cl]
- T/C (endpoint: mean survival time, dose: 0.62 mg/kg/injection, schedule: Q04DX003 (ip), vehicle: saline): 104 % of control
- T/C (endpoint: mean survival time, dose: 1.25 mg/kg/injection, schedule: Q04DX003 (ip), vehicle: saline): 106 % of control

SMILES: O=C1C=CC(=Nc2ccccc2Cl)O1
- T/C [5]: 103 % of control
- T/C [9]: 101 % of control
- T/C [10]: 100 % of control

SMILES: COc1ccc(C(=CC2=CC(=O)C3=C(CCCC3)C2=O)c2ccc(OC)cc2)cc1
- T/C (endpoint: mean survival time, dose: 100.0 mg/kg/injection, schedule: Q04DX003 (ip), vehicle: saline sonified): 96 % of control
- T/C (endpoint: mean survival time, dose: 200.0 mg/kg/injection, schedule: Q04DX003 (ip), vehicle: saline sonified): 100 % of control
- T/C (endpoint: mean survival time, dose: 400.0 mg/kg/injection, schedule: Q04DX003 (ip), vehicle: saline sonified): 97 % of control

SMILES: Brc1ccc(OCC(COc2ccc(Br)cc2)(COc2ccc(Br)cc2)COc2ccc(Br)cc2)cc1
- T/C (endpoint: mean survival time, dose: 100.0 mg/kg/injection, schedule: Q01DX001 (ip), vehicle: Klucel (hydroxypropylcellulose) (HPC)): 100 % of control
- T/C (endpoint: mean survival time, dose: 200.0 mg/kg/injection, schedule: Q01DX001 (ip), vehicle: Klucel (hydroxypropylcellulose) (HPC)): 103 % of control
- T/C (endpoint: mean survival time, dose: 400.0 mg/kg/injection, schedule: Q01DX001 (ip), vehicle: Klucel (hydroxypropylcellulose) (HPC)): 91 % of control

SMILES: [Cl][Pt+2][Cl].[NH-]Cc1cccc(F)c1.[NH-]Cc1cccc(F)c1
- T/C (endpoint: mean survival time, dose: 12.5 mg/kg/injection, schedule: Q04DX003 (ip), vehicle: distilled water + Tween-80): 95 % of control
- T/C (endpoint: mean survival time, dose: 25.0 mg/kg/injection, schedule: Q04DX003 (ip), vehicle: distilled water + Tween-80): 95 % of control
- T/C (endpoint: mean survival time, dose: 50.0 mg/kg/injection, schedule: Q04DX003 (ip), vehicle: distilled water + Tween-80): 95 % of control
- T/C (endpoint: mean survival time, dose: 100.0 mg/kg/injection, schedule: Q04DX003 (ip), vehicle: distilled water + Tween-80): 100 % of control
- T/C (endpoint: mean survival time, dose: 200.0 mg/kg/injection, schedule: Q04DX003 (ip), vehicle: distilled water + Tween-80): 100 % of control

SMILES: Cc1nc(N)nc(N)c1CCCOc1ccc(NC(=O)c2cccc(S(=O)(=O)F)c2)cc1
- T/C (endpoint: mean survival time, dose: 12.5 mg/kg/injection, schedule: Q01DX009 (ip), vehicle: saline): 101 % of control
- T/C (endpoint: mean survival time, dose: 25.0 mg/kg/injection, schedule: Q01DX009 (ip), vehicle: saline): 107 % of control
- T/C (endpoint: mean survival time, dose: 50.0 mg/kg/injection, schedule: Q01DX009 (ip), vehicle: saline): 107 % of control
- T/C [11]: 109 % of control
- T/C (endpoint: mean survival time, dose: 100.0 mg/kg/injection, schedule: Q#A X018 (ip), vehicle: saline): 90 % of control
- T/C [12]: 107 % of control

SMILES: CC(=O)OC1CCC2(C)C(CCC3C2CCC2(C)C(C(C)=O)CCC32)C1 (configuration not stated)
- T/C (endpoint: mean survival time, dose: 100.0 mg/kg/injection, schedule: Q04DX003 (sc), vehicle: steriod suspending solution): 103 % of control
- T/C (endpoint: mean survival time, dose: 200.0 mg/kg/injection, schedule: Q04DX003 (sc), vehicle: steriod suspending solution): 97 % of control
- T/C (endpoint: mean survival time, dose: 400.0 mg/kg/injection, schedule: Q04DX003 (sc), vehicle: steriod suspending solution): 107 % of control

SMILES: O=C(O)c1ccccc1C(=O)c1ccc(Cl)cc1
- T/C [1]: 100 % of control
- T/C [5]: 94 % of control
- T/C [2]: 110 % of control
- T/C [9]: 97 % of control
- T/C [3]: 108 % of control
- T/C [10]: 95 % of control

SMILES: CC(C)c1nc(-c2ccccc2)c(-c2ccccc2)[nH]1
- T/C [1]: 103 % of control
- T/C [2]: 94 % of control
- T/C [3]: 100 % of control

SMILES: CN(C)CCC(=O)C(=Cc1ccc(O)cc1)C(=O)CCN(C)C
- T/C (endpoint: median survival time, dose: 12.5 mg/kg/injection, schedule: Q01DX009 (ip), vehicle: saline): 104 % of control
- T/C [6]: 101 % of control
- T/C [7]: 100 % of control
- T/C [8]: 97 % of control
- T/C (endpoint: median survival time, dose: 200.0 mg/kg/injection, schedule: Q01DX009 (ip), vehicle: saline): 97 % of control

SMILES: CNC(=O)c1n[nH]c(C)c1[N+](=O)[O-]
- T/C (endpoint: mean survival time, dose: 25.0 mg/kg/injection, schedule: Q01DX009 (ip), vehicle: Klucel (hydroxypropylcellulose) (HPC)): 107 % of control
- T/C (endpoint: mean survival time, dose: 50.0 mg/kg/injection, schedule: Q01DX009 (ip), vehicle: Klucel (hydroxypropylcellulose) (HPC)): 107 % of control
- T/C (endpoint: mean survival time, dose: 100.0 mg/kg/injection, schedule: Q01DX009 (ip), vehicle: Klucel (hydroxypropylcellulose) (HPC)): 107 % of control
- T/C (endpoint: mean survival time, dose: 200.0 mg/kg/injection, schedule: Q01DX009 (ip), vehicle: Klucel (hydroxypropylcellulose) (HPC)): 104 % of control
- T/C (endpoint: mean survival time, dose: 400.0 mg/kg/injection, schedule: Q01DX009 (ip), vehicle: Klucel (hydroxypropylcellulose) (HPC)): 102 % of control

SMILES: N/C(=N\c1nc(N)cc(=O)[nH]1)Nc1ccc(S(N)(=O)=O)cc1
- T/C [11]: 96 % of control
- T/C [12]: 95 % of control
- T/C (endpoint: mean survival time, dose: 400.0 mg/kg/injection, schedule: Q01DX009 (ip), vehicle: saline): 95 % of control

SMILES: NCCCNc1ccc([N+](=O)[O-])cc1
- T/C (endpoint: mean survival time, dose: 75.0 mg/kg/injection, schedule: Q01DX001 (ip), vehicle: saline): 98 % of control
- T/C (endpoint: mean survival time, dose: 150.0 mg/kg/injection, schedule: Q01DX001 (ip), vehicle: saline): 106 % of control
- T/C (endpoint: mean survival time, dose: 300.0 mg/kg/injection, schedule: Q01DX001 (ip), vehicle: saline): 98 % of control

SMILES: O=C(c1cccnc1)c1cn(C2OC(CO)C(O)C(O)C2O)c2ccccc12 (configuration not stated)
- T/C (endpoint: mean survival time, dose: 12.5 mg/kg/injection, schedule: Q01DX005 (ip), vehicle: other): 93 % of control
- T/C (endpoint: mean survival time, dose: 25.0 mg/kg/injection, schedule: Q01DX005 (ip), vehicle: other): 97 % of control
- T/C (endpoint: mean survival time, dose: 50.0 mg/kg/injection, schedule: Q01DX005 (ip), vehicle: other): 104 % of control
- T/C (endpoint: mean survival time, dose: 100.0 mg/kg/injection, schedule: Q01DX005 (ip), vehicle: other): 97 % of control
- T/C (endpoint: mean survival time, dose: 200.0 mg/kg/injection, schedule: Q01DX005 (ip), vehicle: other): 95 % of control

Reference: PubChem BioAssay AID256 (DTP/NCI, 2004)
